Molecular target: T1, PDGFRA D842V (Homo sapiens, UniProt P16234, D842V)
T1 construct: purchased Thermo Fisher Scientific (Life Technologies) SelectScreen
Experiment: SelectScreen Z'LYTE
Format: biochemical
How it was run: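 Percent values come from Thermo SelectScreen profiling of NU5455, combining activity and binding assays. CSF1R was run in Z'LYTE format at Km app ATP, and CAMK1 in Adapta format with ATP listed at 10.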

T1 sequence (P16234 24-1089 D842V): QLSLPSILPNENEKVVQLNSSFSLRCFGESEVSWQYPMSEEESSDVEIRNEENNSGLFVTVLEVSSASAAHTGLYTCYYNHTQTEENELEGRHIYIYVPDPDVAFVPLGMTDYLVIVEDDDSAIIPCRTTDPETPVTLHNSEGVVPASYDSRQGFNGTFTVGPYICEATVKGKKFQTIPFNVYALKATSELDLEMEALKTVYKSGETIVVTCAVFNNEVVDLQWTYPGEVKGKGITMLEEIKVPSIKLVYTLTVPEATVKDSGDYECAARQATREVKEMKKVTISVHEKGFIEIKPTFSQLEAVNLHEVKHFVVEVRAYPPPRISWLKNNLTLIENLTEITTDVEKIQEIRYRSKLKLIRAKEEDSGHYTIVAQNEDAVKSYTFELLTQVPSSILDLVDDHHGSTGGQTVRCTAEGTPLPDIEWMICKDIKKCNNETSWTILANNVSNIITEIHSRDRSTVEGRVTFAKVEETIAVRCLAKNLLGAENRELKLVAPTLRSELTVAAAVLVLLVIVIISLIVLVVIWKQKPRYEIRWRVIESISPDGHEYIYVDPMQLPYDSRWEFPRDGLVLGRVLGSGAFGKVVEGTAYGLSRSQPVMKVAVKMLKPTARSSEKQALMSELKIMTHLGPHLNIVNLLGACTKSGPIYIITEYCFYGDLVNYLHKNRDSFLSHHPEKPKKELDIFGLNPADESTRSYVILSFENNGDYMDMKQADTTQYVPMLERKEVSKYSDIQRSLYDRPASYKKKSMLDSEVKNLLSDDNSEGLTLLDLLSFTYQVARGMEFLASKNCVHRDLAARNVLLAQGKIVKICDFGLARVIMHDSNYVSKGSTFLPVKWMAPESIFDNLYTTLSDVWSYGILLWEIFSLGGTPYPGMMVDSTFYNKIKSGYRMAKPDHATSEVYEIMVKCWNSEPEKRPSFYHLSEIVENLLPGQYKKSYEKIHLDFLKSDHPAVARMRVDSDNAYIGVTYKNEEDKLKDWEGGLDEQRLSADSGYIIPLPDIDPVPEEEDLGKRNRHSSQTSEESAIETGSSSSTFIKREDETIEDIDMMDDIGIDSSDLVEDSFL

In the case of CN(C(=O)CN1CCOCC1)c1ccc2sc3c(-c4cccc5c(=O)cc(N6CC7CCC(C6)O7)oc45)cccc3c2c1 [NU5455], the inhibition at 1 µM is reported as -5%.

Reference: paper PMC6934184, “Selective DNA-PKcs inhibition extends the therapeutic index of localized radiotherapy and chemotherapy” (The Journal of Clinical Investigation, 2019)
